Assay [1] concerns AMPKα1 wild-type (WT) and knockout (KO) mice. As to the kind of experiment: Murine hemorrhagic shock model: mean arterial blood pressure and heart rate. Format: in vivo. The source says: Murine model of hemorrhagic shock. The experiments conformed to the Guide for the Care and Use of Laboratory Animals published by the US National Institutes of Health (Eighth edition, 2011) and had the approval of the Institutional Animal Care and Use Committee. Homozygous AMPKα1 wild-type (WT) and AMPKα1 knockout (KO) mice were established on a C57/BL6 genetic background by the crossbreeding (>10 generations) of a breeding pair provided by Dr. Benoit Viollet of the University of Paris Descartes (Paris, France). For these experiments, female AMPKα1 WT and KO mice were generated by a breeding scheme utilizing heterozygous mutant mice. Female mice were used at random stages of the estrous cycle at the age of 3 to 5 months and assigned to the different experimental groups after routine genotyping by quantitative polymerase chain reaction. All mice were allowed free access to water and a maintenance diet in a 12-h light/dark cycle, with room temperature at 21±2° C. Mice were anesthetized with pentobarbital (80 mg/kg) intraperitoneally and prepared for hemorrhagic shock, as previously described. Briefly, either the left or right femoral artery was cannulated using PE-10 tubing, and connected to a blood pressure transducer (PowerLab, AD Instruments, Colorado Springs, CO) for measurement of mean arterial blood pressure (MABP) and heart rate (HR). Blood was removed from the femoral artery over a 10-minute period until MABP reached 30±5 mmHg. The mice were kept in this MABP range for 90 min by additional blood removal or small volume transfusion. At the end of the shock period, mice were resuscitated by infusing their shed blood and twice that amount in Lactated Ringer's solution over a 10-min period. AMPKα1 WT and KO mice were also randomly assigned to two treatment groups: a vehicle group (distilled water, 500 μL) and a humanin-G (100 μg/kg) group. Drug treatment was given intra-arterially as single bolus right before resuscitation, and at 1 and 2 hours thereafter. […] Mice were monitored for 3 hours after resuscitation for cardiovascular parameters. […]

For assay [2] the test system is unchanged. Kind of assay: Plasma levels of humanin by competitive ELISA after hemorrhagic shock. Format: in vivo. Conditions: 100 μg/kg intra-arterially, 3 h after resuscitation. The source says:
(§1) Murine model of hemorrhagic shock. The experiments conformed to the Guide for the Care and Use of Laboratory Animals published by the US National Institutes of Health (Eighth edition, 2011) and had the approval of the Institutional Animal Care and Use Committee. Homozygous AMPKα1 wild-type (WT) and AMPKα1 knockout (KO) mice were established on a C57/BL6 genetic background by the crossbreeding (>10 generations) of a breeding pair provided by Dr. Benoit Viollet of the University of Paris Descartes (Paris, France). For these experiments, female AMPKα1 WT and KO mice were generated by a breeding scheme utilizing heterozygous mutant mice. Female mice were used at random stages of the estrous cycle at the age of 3 to 5 months and assigned to the different experimental groups after routine genotyping by quantitative polymerase chain reaction. All mice were allowed free access to water and a maintenance diet in a 12-h light/dark cycle, with room temperature at 21±2° C. Mice were anesthetized with pentobarbital (80 mg/kg) intraperitoneally and prepared for hemorrhagic shock, as previously described. […] Mice were monitored for 3 hours after resuscitation for cardiovascular parameters. […]
Plasma levels of humanin. Endogenous plasma levels of humanin were measured by competitive ELISA ([…], MyBioSource, San Diego, CA) using the protocol recommended by the manufacturer.
In general terms: In an ELISA, binding on a coated surface is turned into a signal by an enzyme label.

For assay [3] the test system is unchanged. As to the kind of experiment: ATP assay in heart tissue after hemorrhagic shock. Format: in vivo. Conditions: 100 μg/kg intra-arterially, 3 h after resuscitation.
Text: as §1
ATP assay. ATP levels were measured in heart tissue homogenates using a commercially available ATP assay kit (BioVision, Milpitas, CA) and following the protocol recommended by the manufacturer.

For assay [4] the test system is unchanged. As to the kind of experiment: Lung histopathologic analysis after hemorrhagic shock. Format: in vivo. Conditions: 100 μg/kg intra-arterially, 3 h after resuscitation.
Text: as §1
Histopathologic analysis. […] Sections were stained with hematoxylin and eosin and evaluated by an independent observer blinded to the treatment groups. […]

Assay [5] has the same test system. Kind of assay: Lung myeloperoxidase assay (neutrophil infiltration) after hemorrhagic shock. Format: in vivo. Conditions: 100 μg/kg intra-arterially, 3 h after resuscitation.
Text: as §1, with “C.” for “C. Mice were anesthetized with pentobarbital (80 mg/kg) intraperitoneally and prepared for hemorrhagic shock, as previously described.”
Myeloperoxidase assay. Myeloperoxidase (MPO) activity was determined as an index of neutrophil accumulation. […] The rate of change in absorbance was measured by spectrophotometry at 650 nm. MPO activity was defined as the quantity of enzyme degrading […] of hydrogen peroxide/min at 37° C. and expressed in units per 100 mg weight of tissue.

The test system of assay [6] is STAT3 and Complex I subunit GRIM-19. As to the kind of experiment: Western blot of pSTAT3(Ser727) and GRIM-19 in mitochondrial extracts of lung and heart. Format: in vivo, mice. The source says: Murine model of hemorrhagic shock. The experiments conformed to the Guide for the Care and Use of Laboratory Animals published by the US National Institutes of Health (Eighth edition, 2011) and had the approval of the Institutional Animal Care and Use Committee. Homozygous AMPKα1 wild-type (WT) and AMPKα1 knockout (KO) mice were established on a C57/BL6 genetic background by the crossbreeding (>10 generations) of a breeding pair provided by Dr. Benoit Viollet of the University of Paris Descartes (Paris, France). For these experiments, female AMPKα1 WT and KO mice were generated by a breeding scheme utilizing heterozygous mutant mice. Female mice were used at random stages of the estrous cycle at the age of 3 to 5 months and assigned to the different experimental groups after routine genotyping by quantitative polymerase chain reaction. All mice were allowed free access to water and a maintenance diet in a 12-h light/dark cycle, with room temperature at 21±2° C. Mice were anesthetized with pentobarbital (80 mg/kg) intraperitoneally and prepared for hemorrhagic shock, as previously described. Briefly, either the left or right femoral artery was cannulated using PE-10 tubing, and connected to a blood pressure transducer (PowerLab, AD Instruments, Colorado Springs, CO) for measurement of mean arterial blood pressure (MABP) and heart rate (HR). Blood was removed from the femoral artery over a 10-minute period until MABP reached 30±5 mmHg. The mice were kept in this MABP range for 90 min by additional blood removal or small volume transfusion. At the end of the shock period, mice were resuscitated by infusing their shed blood and twice that amount in Lactated Ringer's solution over a 10-min period. AMPKα1 WT and KO mice were also randomly assigned to two treatment groups: a vehicle group (distilled water, 500 μL) and a humanin-G (100 μg/kg) group. Drug treatment was given intra-arterially as single bolus right before resuscitation, and at 1 and 2 hours thereafter. Dose of humanin was chosen according to reported pharmacokinetics and pharmacodynamics of the drug in the mice. Mice were monitored for 3 hours after resuscitation for cardiovascular parameters. […] Mice were sacrificed at 3 hours after resuscitation and blood, heart and lungs were collected for biochemical assays.
Mitochondrial extracts. Mitochondria were isolated from hearts and lungs using a commercially available mitochondria isolation kit (TermoFisher Scientific, Waltham, MA) and following the protocol recommended by the manufacturer. The Bradford protein assay was used for quantitative determination of total proteins.
Western blot analysis. Cytosol and nuclear content of STAT3 and its two phosphorylated active forms pSTAT3(Tyr705) and pSTAT3(Ser727), and mitochondrial content of pSTAT3(Ser727) and the Complex I subunit GRIM-19 (gene associated with retinoid-IFN-induced mortality) were determined by immunoblotting analyses. Extracts were heated at 70° C. in equal volumes of ×4 Protein Sample Loading Buffer. Twenty μg of protein were loaded per lane on a 10% Bis-Tris gel. Proteins were separated electrophoretically and transferred to nitrocellulose membranes. Immunoblotting was performed using the IBind Flex Western System (Thermo Fischer Scientific, Waltham, MA) that applies sequential lateral flow to perform blocking and antibody binding. […] For all immunoblotting, the Odyssey LI-COR scanner and software (LI-COR Biotechnology, Lincoln, NE) were used for detection and quantitative analysis.
(In general: Immunoblotting shows a protein as a band on a membrane.)

[7] abbreviates: heart mitochondria, WT or KO mice, compared to vehicle-treated mice.

Turning to “[Gly14]-Humanin (MAPRGFSCLLLLTGEIDLPVKRRA) [humanin-G, synthetic humanin analogue, serine at position 14 replaced by glycine]”, the “MABP recovery to baseline” value in assay [1] (AMPKα1 KO mice, 100 μg/kg intra-arterially at resuscitation, 1 h, 2 h) is on record as “did not completely recover to baseline”. Besides, the “mean arterial blood pressure (MABP)” value in assay [1] (AMPKα1 WT and KO female mice, 100 μg/kg intra-arterially at resuscitation and 1 h and 2 h thereafter, compared to vehicle-treated groups) is reported as “significantly ameliorated”. Besides, the “heart rate (HR)” value in assay [1] (AMPKα1 WT or KO mice, 100 μg/kg intra-arterially, compared to vehicle-treated groups) is on record as “did not affect”. The “plasma humanin levels compared to vehicle-treated groups” value in assay [2] (AMPKα1 WT and KO mice) is reported as “not statistically different”. Also, in assay [2] (AMPKα1 WT mice, but not KO mice), the “plasma levels of humanin compared to control mice” value is listed as “comparable with levels of control mice”. Moreover, the “cardiac ATP levels” value in assay [3] is on record as “increased”. Moreover, the “lung architecture (histology)” value in assay [4] is listed as “significantly improved”. Further, the “lung MPO activity” value in assay [5] was “significantly reduced”. In addition, in assay [6] (setting [7]), the “mitochondrial expression of GRIM-19 in heart” value is given as “did not affect” and the “mitochondrial expression of pSTAT3(Ser727) in heart” value is on record as “did not affect”. The “mitochondrial expression of pSTAT3(Ser727) in lung” value in assay [6] (isolated lung mitochondria, WT and KO mice, 100 μg/kg intra-arterially) is “slightly, but not significantly, increased”. For the same substance, the “GRIM-19 expression in lung mitochondria” value in assay [6] (KO mice, 100 μg/kg intra-arterially) is on record as “did not affect”. Also, the “GRIM-19 expression in lung mitochondria” value in assay [6] (WT mice, 100 μg/kg intra-arterially) was “restored levels of GRIM-19 similarly to basal levels”.

Source of the values: patent US20260166121A1, “COMPOSITIONS AND METHODS FOR THE TREATMENT OF HEMORRHAGIC SHOCK” (Children's Hospital Medical Center, priority 2022, published 2026).
